Results from US20190359681A1, “NOVEL MINOR HISTOCOMPATIBILITY ANTIGENS AND USES THEREOF” (UNIVERSITÉ DE MONTRÉAL, priority 2015, published 2019).

Tested on: T cells from MiHA-negative individuals
Experiment: Immunogenicity: T cells primed with MiHA-pulsed autologous dendritic cells, IFNγ ELISpot and intracellular cytokine staining
Format: cell-based, human
Settings: T cells from four MiHA-negative individuals primed with autologous dendritic cells pulsed with synthetic MiHA; re-exposed to MiHA vs no peptide or irrelevant peptide
Experimental: Determination of the immunogenicity of the identified MiHAs. T cells and monocytes were purified from 100-150×10^6 PBMCs obtained from MiHA-negative individuals using MACS® cell separation columns (Miltenyi Biotec®) or EasySep™ kits (Stemcell Technologies®). Monocyte-derived dendritic cells were generated as previously described (3) and matured with GM-CSF, IL-4, PGE2, TNFα, IL-1β, IL-6 and IFNγ. These dendritic cells were then irradiated at 40 Gy and pulsed with 2 μg/mL of the synthetic MiHA peptide (GLRX3-1^S, WDR27-1^L, MIIP-2^E, or RASSF1-1^S) or an irrelevant peptide (Epstein-Barr virus LMP2^426-434) that was used a negative control. Pulsed or unpulsed dendritic cells were then co-cultured with previously enriched autologous T cells (5×10^5/well) in 48-well plates in advanced RPMI medium supplemented with 10% of human serum, 1% of L-Glutamine and 30 ng/mL of IL-21 at a 1:4 (stimulator:effector) ratio. Supplemented media with IL-7 and IL-15 was added after 3, 5 and 7 days of culture and cells were transferred in 12-well plates and 6-well plates at day 5 and 7, respectively. After 10 days of culture, T cells were harvested to determine antigen reactivity with ELISpot for IFNγ and polyfunctional intracellular cytokine staining. Briefly, ELISpot analysis was performed according to the manufacturer's instructions (MABtech®) and intracellular staining was performed after restimulation with 5 μg/mL of peptide in the presence of Brefeldin A for 4 hours. […] Acquisition was performed with a BD™ LSR II flow cytometer and data were analyzed using Flowlogic™ software (Inivai Technologies®).
As a proof of principle, the immunogenicity of four novel MiHAs was tested: GLRX3-1^S, MIIP-2^E, RASSF1-1^S and WDR27-1^L (FIGS. 3A-3D). […] Read-out of antigen-reactivity was assessed by ELISpot (FIG. 3A) and intracellular staining assays (FIGS. 3B-3D).

EESAVPE/KRSW (EESAVPERSW) [MIIP-2^E]
cytokine production by primed T cells (antigen-reactivity by ELISpot and intracellular staining): produced cytokines in a MiHA-specific fashion in all tested donors

FLS/PSANEHL [GLRX3-1^S, synthetic peptide tested for immunogenicity]
cytokine production by primed T cells (antigen-reactivity by ELISpot and intracellular staining): produced cytokines in a MiHA-specific fashion in all tested donors

S/AEIEQKIKEY (SEIEQKIKEY) [RASSF1-1^S]
cytokine production by primed T cells (antigen-reactivity by ELISpot and intracellular staining): produced cytokines in a MiHA-specific fashion in all tested donors
